Data published in PubChem BioAssay AID328 (DTP/NCI, 2004).
Values joined by “and” are separate entries in the source; they are usually repeats but may differ in a detail not shown here. Equal entries are not always repeated. Toxic doses and inconclusive results are not listed. Rule for the calls: active = survival T/C of 150% or more; inactive = T/C below 125% in these data.

Tested on: BDF1 mice, P388 leukemia ip, median survival T/C
Experiment: NCI In Vivo Anticancer Drug Screen. Data for tumor model P388 Leukemia (intraperitoneal) in B6D2F1 (BDF1) mice
Conditions: endpoint: median survival time, higher = longer survival
Procedure, shortened: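 Transplantable tumour in mice; compound vs vehicle dosing; survival scored; ratio of treated to control reported.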

[1] = dose: 12.5 mg/kg/injection, schedule: Q01DX009 (ip), vehicle: saline with Tween-80
[2] = dose: 50.0 mg/kg/injection, schedule: Q01DX009 (ip), vehicle: saline with Tween-80
[3] = dose: 100.0 mg/kg/injection, schedule: Q01DX009 (ip), vehicle: saline with Tween-80
[4] = dose: 50.0 mg/kg/injection, schedule: Q01DX009 (ip), vehicle: saline
[5] = dose: 100.0 mg/kg/injection, schedule: Q01DX009 (ip), vehicle: saline
[6] = dose: 200.0 mg/kg/injection, schedule: Q01DX009 (ip), vehicle: saline
[7] = dose: 200.0 mg/kg/injection, schedule: Q01DX009 (ip), vehicle: saline with Tween-80

Measured: T/C

Cc1ccc(NS(=O)(=O)c2ccc([N+](=O)[O-])cc2)cc1
inactive: [1] 90 % of control | dose: 33.0 mg/kg/injection, schedule: Q01DX009 (ip), vehicle: saline with Tween-80 100 % of control | [2] 90 % of control and 100 % of control | dose: 75.0 mg/kg/injection, schedule: Q01DX009 (ip), vehicle: saline with Tween-80 95 % of control | [3] 100 % of control

COC(=O)C12OCC34C(CC5=C(C)C(=O)C(O)=CC5(C)C3C(O)C1O)OC(=O)C(OC(=O)/C=C(\C)C(C)C)C24 (stereo not drawn)
inactive: dose: 31.0 micrograms/kg/injection, schedule: Q01DX009 (ip), vehicle: saline + alcohol 120 % of control | dose: 62.0 micrograms/kg/injection, schedule: Q01DX009 (ip), vehicle: saline + alcohol 115 % of control | dose: 250.0 micrograms/kg/injection, schedule: Q01DX009 (ip), vehicle: saline + alcohol 100 % of control | dose: 500.0 micrograms/kg/injection, schedule: Q01DX009 (ip), vehicle: saline + alcohol 105 % of control | dose: 1000.0 micrograms/kg/injection, schedule: Q01DX009 (ip), vehicle: saline + alcohol 120 % of control | dose: 2000.0 micrograms/kg/injection, schedule: Q01DX009 (ip), vehicle: saline + alcohol 110 % of control

O=C(C=C(C(F)(F)F)C(F)(F)F)c1ccc(Cl)cc1
inactive: dose: 6.25 mg/kg/injection, schedule: Q01DX009 (ip), vehicle: saline with Tween-80 100 % of control | [1] 100 % of control | dose: 25.0 mg/kg/injection, schedule: Q01DX009 (ip), vehicle: saline with Tween-80 118 % of control

Cc1ccccc1OS(=O)(=O)C(F)(F)C(F)(F)C(F)(F)C(F)(F)F
inactive: [4] 100 % of control | [5] 100 % of control | [6] 106 % of control

Cc1ccc(C(=O)C(Br)C(Br)c2ccccc2)cc1 (stereo not drawn)
inactive: dose: 100.0 mg/kg/injection, schedule: Q04DX003 (ip), vehicle: saline with Tween-80 95 % of control | dose: 200.0 mg/kg/injection, schedule: Q04DX003 (ip), vehicle: saline with Tween-80 94 % of control | dose: 400.0 mg/kg/injection, schedule: Q04DX003 (ip), vehicle: saline with Tween-80 103 % of control

CCOC(=O)C1C(C)OC(=O)C(Br)C1C (stereo not drawn)
inactive: [2] 97 % of control | [3] 98 % of control | [7] 104 % of control

O=[N+]([O-])c1ccccc1N/N=C\c1c(Cl)[nH]c2ccccc12
inactive: dose: 200.0 mg/kg/injection, schedule: Q04DX002 (ip), vehicle: Klucel (hydroxypropylcellulose) (HPC) 90 % of control | dose: 400.0 mg/kg/injection, schedule: Q04DX002 (ip), vehicle: Klucel (hydroxypropylcellulose) (HPC) 90 % of control

CC(C)N=Cc1ccccc1O.CC(C)N=Cc1ccccc1O.[Ni]
inactive: dose: 6.25 mg/kg/injection, schedule: Q04DX003 (ip), vehicle: saline sonified 105 % of control | dose: 12.5 mg/kg/injection, schedule: Q04DX003 (ip), vehicle: saline sonified 105 % of control | dose: 25.0 mg/kg/injection, schedule: Q04DX003 (ip), vehicle: saline sonified 115 % of control

COC(=O)N1CCC2OC2C1 (stereo not drawn)
inactive: [4] 99 % of control | [5] 107 % of control | [6] 100 % of control

c1ccc(-c2cc3c(N4CCOCC4)nnc(N4CCOCC4)c3cn2)cc1
inactive: [2] 89 % of control | [3] 86 % of control

O=C(Nc1ccc(Cl)c(Cl)c1)ON1CCCCC1
inactive: [2] 100 % of control | [3] 100 % of control | [7] 106 % of control

C/C(N=Nc1ccccc1[N+](=O)[O-])=N\Nc1ccccc1
inactive: dose: 100.0 mg/kg/injection, schedule: Q04DX003 (ip), vehicle: Klucel (hydroxypropylcellulose) (HPC) 122 % of control | dose: 200.0 mg/kg/injection, schedule: Q04DX003 (ip), vehicle: Klucel (hydroxypropylcellulose) (HPC) 122 % of control | dose: 400.0 mg/kg/injection, schedule: Q04DX003 (ip), vehicle: Klucel (hydroxypropylcellulose) (HPC) 113 % of control

CCCCOC(=O)C1(N)CCCC1
inactive: [4] 104 % of control | dose: 150.0 mg/kg/injection, schedule: Q01DX009 (ip), vehicle: saline with Tween-80 120 % of control | [6] 109 % of control

CCNC(=O)OCc1c(COC(=O)NCC)c(-c2ccc(F)cc2)n2c1CCC2
inactive: dose: 25.0 mg/kg/injection, schedule: Q01DX009 (ip), vehicle: other 98 % of control
